Measured values published in patent publication US8530650B2, “2, 5-diamino-substituted pyrido [4, 3-D] pyrimidines as autotaxin inhibitors against cancer” (MERCK PATENT GmbH, priority 2008, dated 2013).

target: T1, recombinant autotaxin (Homo sapiens, UniProt Q13822); experiment: Autotaxin assay (Amplex Red, LPC substrate); format: biochemical; conditions: 75 μM LPC, Amplex Red fluorescence, ten 1:3 dilutions starting at 30 μM
T1 construct: made in house; host or cells: Hi5 insect cells (baculovirus)
Method in brief: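 Baculovirus (Hi5)-expressed autotaxin (16 ng) was preincubated with compound 30 min at 22° C., then reacted with 75 μM final egg LPC for 90 min at 37° C.; choline released was coupled via choline oxidase/peroxidase to Amplex Red, fluorescence read kinetically (ex 485/em 612 nm). IC50 from 10-point 1:3 dilutions from 30 μM, duplicates, normalized to 500 μM C14 LPA as 0%.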

SMILES	IC50
COc1ccc(CNc2ncc3c(N4CCCC(C(=O)N5CCN(c6ccccn6)CC5)C4)nccc3n2)cc1 (centres unmarked) [Compound 95, {1-[2-(4-Methoxy-benzylamino)-pyrido[4,3-d]pyrimidin-5-yl]-piperidin-3-yl}-(4-pyridin-2-yl-piperazin-1-yl)-methanone]	< 30 µM
Fc1ccccc1Nc1nccc2nc(NCc3ccccc3Cl)ncc12 [Compound 100, N2-(2-Chloro-benzyl)-N5-(2-fluoro-phenyl)-pyrido[4,3-d]pyrimidine-2,5-diamine]	< 10 µM
CCOC(=O)CCNC(=O)C1CCN(c2nccc3nc(NCc4ccccc4Cl)ncc23)CC1 [Compound 101, 3-({1-[2-(2-Chloro-benzylamino)-pyrido[4,3-d]pyrimidin-5-yl]-piperidine-4-carbonyl}-amino)-propionic acid ethyl ester]	< 30 µM
CCOCCCNC(=O)C1CCN(c2nccc3nc(NCc4ccccc4OC)ncc23)CC1 [Compound 102, 1-[2-(2-Methoxy-benzylamino)-pyrido[4,3-d]pyrimidin-5-yl]-piperidine-4-carboxylic acid (3-ethoxy-propyl)-amide]	< 30 µM
CCN(CC)C(=O)C1CCN(c2nccc3nc(NCc4ccccc4OC)ncc23)CC1 [Compound 103, 1-[2-(2-Methoxy-benzylamino)-pyrido[4,3-d]pyrimidin-5-yl]-piperidine-4-carboxylic acid diethylamide]	< 10 µM
CN1CCN(C(=O)C2CCCN(c3nccc4nc(NCc5ccccc5Cl)ncc34)C2)CC1 (centres unmarked) [Compound 104, {1-[2-(2-Chloro-benzylamino)-pyrido[4,3-d]pyrimidin-5-yl]-piperidin-3-yl}-(4-methyl-piperazin-1-yl)-methanone]	< 30 µM
O=C(NCCO)C1CCN(c2nccc3nc(NCc4ccccc4Cl)ncc23)CC1 [Compound 105, 1-[2-(2-Chloro-benzylamino)-pyrido[4,3-d]pyrimidin-5-yl]-piperidine-4-carboxylic acid (2-hydroxy-ethyl)-amide]	< 30 µM
O=C(CN1CCN(c2nccc3nc(NCc4ccccc4Cl)ncc23)CC1)Nc1cccnc1 [Compound 108, 2-{4-[2-(2-Chloro-benzylamino)-pyrido[4,3-d]pyrimidin-5-yl]-piperazin-1-yl}-N-pyridin-3-yl-acetamide]	< 10 µM

Results, then the molecule that gave them:

IC50	SMILES
< 5 µM	CCN(CC)CCNC(=O)C1CCN(c2nccc3nc(NCc4ccccc4Cl)ncc23)CC1 [Compound 96, 1-[2-(2-Chloro-benzylamino)-pyrido[4,3-d]pyrimidin-5-yl]-piperidine-4-carboxylic acid (2-diethylamino-ethyl)-amide]
< 10 µM	CCCN1CCN(C(=O)C2CCN(c3nccc4nc(NCc5ccccc5Cl)ncc34)CC2)CC1 [Compound 97, {1-[2-(2-Chloro-benzylamino)-pyrido[4,3-d]pyrimidin-5-yl]-piperidin-4-yl}-(4-propyl-piperazin-1-yl)-methanone]
< 5 µM	CCOCCCNC(=O)C1CCN(c2nccc3nc(NCc4ccccc4Cl)ncc23)CC1 [Compound 98, 1-[2-(2-Chloro-benzylamino)-pyrido[4,3-d]pyrimidin-5-yl]-piperidine-4-carboxylic acid (3-ethoxy-propyl)-amide]
< 5 µM	O=C(C1CCCN(c2nccc3nc(NCc4ccccc4Cl)ncc23)C1)N1CCN(c2ccccn2)CC1 (centres unmarked) [Compound 99, {1-[2-(2-Chloro-benzylamino)-pyrido[4,3-d]pyrimidin-5-yl]-piperidin-3-yl}-(4-pyridin-2-yl-piperazin-1-yl)-methanone]
< 5 µM	Fc1ccc(N2CCN(c3nccc4nc(NCc5ccccc5Cl)ncc34)CC2)cc1 [Compound 106, (2-Chloro-benzyl)-{5-[4-(4-fluoro-phenyl)-piperazin-1-yl]-pyrido[4,3-d]pyrimidin-2-yl}-amine]
< 5 µM	NC(=O)C1CCN(c2nccc3nc(NCc4ccccc4Cl)ncc23)CC1 [Compound 107, 1-[2-(2-Chloro-benzylamino)-pyrido[4,3-d]pyrimidin-5-yl]-piperidine-4-carboxylic acid amide]
